Measured values as given in the supplement of paper PMC10307832.

Assays:
Test in all cases: relative viability (nuclei count vs DMSO), 5 days (fraction); higher = more cells survive
LCLC-97TM1 = system: LCLC-97TM1
In short: (§1)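 One day after seeding in 1536-well plates, lung cancer cell lines were dosed by pin tool. Dosing was either single-drug or a fixed anchor-drug dose plus five library-drug doses (not always all listed) in √10 steps. After 5 days, nuclei were stained in one fix-and-stain step and counted on 4× images, and relative viability is the nuclei count of treated wells over that of vehicle wells, given as the median of duplicate plates.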

NCI-H460 = system: NCI-H460
In short: as §1

LXF-289 = system: LXF-289
In short: as §1

HCC-78 = system: HCC-78
In short: as §1

HOP-62 = system: HOP-62
In short: as §1

A-427 = system: A-427
In short: as §1

EPLC-272H = system: EPLC-272H
In short: as §1

NCI-H1975 = system: NCI-H1975
In short: as §1

NCI-H358 = system: NCI-H358
In short: as §1

COR-L 105 = system: COR-L 105
In short: as §1

NCI-H2170 = system: NCI-H2170
In short: as §1

HCC-366 = system: HCC-366
In short: as §1

NCI-H1792 = system: NCI-H1792
In short: as §1

LU99A = system: LU99A
In short: as §1

NCI-H1915 = system: NCI-H1915
In short: as §1

NCI-H1793 = system: NCI-H1793
In short: as §1

NCI-H1944 = system: NCI-H1944
In short: as §1

UMC-11 = system: UMC-11
In short: as §1

LC-2-ad = system: LC-2-ad
In short: as §1

SK-LU-1 = system: SK-LU-1
In short: as §1

NCI-H2085 = system: NCI-H2085
In short: as §1

NCI-H1755 = system: NCI-H1755
In short: as §1

COc1cc(N2CCC(C(N)=O)CC2)ccc1Nc1nc(N)c(Cl)c(Nc2ccccc2S(=O)(=O)C(C)C)n1 [HG-5-88-01] + Cc1nc(NC(=O)N2CCC[C@H]2C(N)=O)sc1-c1ccnc(C(C)(C)C(F)(F)F)c1 [Alpelisib] (partner 2 µM)
relative viability (LCLC-97TM1; first compound 0.04 µM): 0.264 | relative viability (LCLC-97TM1; first compound 0.1265 µM): 0.217 | relative viability (LCLC-97TM1; first compound 0.4 µM): 0.198 | relative viability (LCLC-97TM1; first compound 1.265 µM): 0.196 | relative viability (LCLC-97TM1; first compound 4 µM): 0.142 | relative viability (NCI-H460; first compound 0.04 µM): 0.466 | relative viability (NCI-H460; first compound 0.1265 µM): 0.461 | relative viability (NCI-H460; first compound 0.4 µM): 0.461 | relative viability (NCI-H460; first compound 1.265 µM): 0.335 | relative viability (NCI-H460; first compound 4 µM): 0.304 | relative viability (LXF-289; first compound 0.04 µM): 1.05 | relative viability (LXF-289; first compound 0.1265 µM): 1.04 | relative viability (LXF-289; first compound 0.4 µM): 1 | relative viability (LXF-289; first compound 1.265 µM): 1.08 | relative viability (LXF-289; first compound 4 µM): 0.968 | relative viability (HCC-78; first compound 0.04 µM): 0.352 | relative viability (HCC-78; first compound 0.1265 µM): 0.304 | relative viability (HCC-78; first compound 0.4 µM): 0.263 | relative viability (HCC-78; first compound 1.265 µM): 0.207 | relative viability (HCC-78; first compound 4 µM): 0.241 | relative viability (HOP-62; first compound 0.04 µM): 0.835 | relative viability (HOP-62; first compound 0.1265 µM): 0.924 | relative viability (HOP-62; first compound 0.4 µM): 0.999 | relative viability (HOP-62; first compound 1.265 µM): 0.981 | relative viability (HOP-62; first compound 4 µM): 1.41 | relative viability (A-427; first compound 0.04 µM): 1.07 | relative viability (A-427; first compound 0.1265 µM): 1.12 | relative viability (A-427; first compound 0.4 µM): 1.16 | relative viability (A-427; first compound 1.265 µM): 1.12 | relative viability (A-427; first compound 4 µM): 0.959 | relative viability (EPLC-272H; first compound 0.04 µM): 0.931 | relative viability (EPLC-272H; first compound 0.1265 µM): 0.838 | relative viability (EPLC-272H; first compound 0.4 µM): 1.12 | relative viability (EPLC-272H; first compound 1.265 µM): 0.804 | relative viability (EPLC-272H; first compound 4 µM): 0.253 | relative viability (NCI-H1975; first compound 0.04 µM): 0.597 | relative viability (NCI-H1975; first compound 0.1265 µM): 0.62 | relative viability (NCI-H1975; first compound 0.4 µM): 0.555 | relative viability (NCI-H1975; first compound 1.265 µM): 0.516 | relative viability (NCI-H1975; first compound 4 µM): 0.264 | relative viability (NCI-H358; first compound 0.04 µM): 0.845 | relative viability (NCI-H358; first compound 0.1265 µM): 0.692 | relative viability (NCI-H358; first compound 0.4 µM): 0.497 | relative viability (NCI-H358; first compound 1.265 µM): 0.432 | relative viability (NCI-H358; first compound 4 µM): 0.323 | relative viability (COR-L 105; first compound 0.04 µM): 0.955 | relative viability (COR-L 105; first compound 0.1265 µM): 1.1 | relative viability (COR-L 105; first compound 0.4 µM): 0.971 | relative viability (COR-L 105; first compound 1.265 µM): 0.606 | relative viability (COR-L 105; first compound 4 µM): 0.711 | relative viability (NCI-H2170; first compound 0.04 µM): 0.761 | relative viability (NCI-H2170; first compound 0.1265 µM): 0.833 | relative viability (NCI-H2170; first compound 0.4 µM): 0.795 | relative viability (NCI-H2170; first compound 1.265 µM): 0.46 | relative viability (NCI-H2170; first compound 4 µM): 0.803 | relative viability (HCC-366; first compound 0.04 µM): 0.49 | relative viability (HCC-366; first compound 0.1265 µM): 0.382 | relative viability (HCC-366; first compound 0.4 µM): 0.309 | relative viability (HCC-366; first compound 1.265 µM): 0.418 | relative viability (HCC-366; first compound 4 µM): 0.327 | relative viability (NCI-H1792; first compound 0.04 µM): 0.874 | relative viability (NCI-H1792; first compound 0.1265 µM): 0.686 | relative viability (NCI-H1792; first compound 0.4 µM): 0.654 | relative viability (NCI-H1792; first compound 1.265 µM): 0.635 | relative viability (NCI-H1792; first compound 4 µM): 0.949 | relative viability (LU99A; first compound 0.04 µM): 0.561 | relative viability (LU99A; first compound 0.1265 µM): 0.514 | relative viability (LU99A; first compound 0.4 µM): 0.513 | relative viability (LU99A; first compound 1.265 µM): 0.552 | relative viability (LU99A; first compound 4 µM): 0.422 | relative viability (NCI-H1915; first compound 0.04 µM): 1.08 | relative viability (NCI-H1915; first compound 0.1265 µM): 1.03 | relative viability (NCI-H1915; first compound 0.4 µM): 1.12 | relative viability (NCI-H1915; first compound 1.265 µM): 1.04 | relative viability (NCI-H1915; first compound 4 µM): 0.958 | relative viability (NCI-H1793; first compound 0.1265 µM): 0.613 | relative viability (NCI-H1793; first compound 0.4 µM): 0.912 | relative viability (NCI-H1793; first compound 1.265 µM): 0.45 | relative viability (NCI-H1793; first compound 4 µM): 0.723 | relative viability (NCI-H1944; first compound 0.04 µM): 0.801 | relative viability (NCI-H1944; first compound 0.1265 µM): 0.833 | relative viability (NCI-H1944; first compound 0.4 µM): 1.01 | relative viability (NCI-H1944; first compound 1.265 µM): 0.71 | relative viability (NCI-H1944; first compound 4 µM): 0.844 | relative viability (UMC-11; first compound 0.04 µM): 1.01 | relative viability (UMC-11; first compound 0.1265 µM): 1 | relative viability (UMC-11; first compound 0.4 µM): 0.998 | relative viability (UMC-11; first compound 1.265 µM): 0.945 | relative viability (UMC-11; first compound 4 µM): 0.954 | relative viability (LC-2-ad; first compound 0.04 µM): 0.91 | relative viability (LC-2-ad; first compound 0.1265 µM): 0.924 | relative viability (LC-2-ad; first compound 0.4 µM): 0.84 | relative viability (LC-2-ad; first compound 1.265 µM): 0.856 | relative viability (LC-2-ad; first compound 4 µM): 0.871 | relative viability (SK-LU-1; first compound 0.04 µM): 1.18 | relative viability (SK-LU-1; first compound 0.1265 µM): 0.988 | relative viability (SK-LU-1; first compound 0.4 µM): 0.895 | relative viability (SK-LU-1; first compound 1.265 µM): 0.966 | relative viability (SK-LU-1; first compound 4 µM): 0.797 | relative viability (NCI-H2085; first compound 0.04 µM): 1.05 | relative viability (NCI-H2085; first compound 0.1265 µM): 1 | relative viability (NCI-H2085; first compound 0.4 µM): 0.908 | relative viability (NCI-H2085; first compound 1.265 µM): 0.973 | relative viability (NCI-H2085; first compound 4 µM): 0.902 | relative viability (NCI-H1755; first compound 0.1265 µM): 0.938 | relative viability (NCI-H1755; first compound 0.4 µM): 0.912 | relative viability (NCI-H1755; first compound 1.265 µM): 0.897 | relative viability (NCI-H1755; first compound 4 µM): 1.05
